Source: patent US12371428B2 (Exelixis, Inc., priority 2019, dated 2025)
Where two headings read alike, the source gives them in different places.

Tests used:
[1] = target: Mer (phospho-Mer, MERTK-transfected 293A cells) (Homo sapiens (Human), UniProt Q12866); experiment: Mer autophosphorylation ELISA in transient transfected 293A cells (Example H); assay type: cell-based; conditions: cellular activity; Mer autophosphorylation ELISA in transient transfected 293A cells
Method in brief: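 IC50 from phospho-Mer ELISA of MERTK-transfected 293A cell lysates after 1 h treatment with serially diluted compound in serum-free medium.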

[2] = target: Human MET (residues 956-1390) (Homo sapiens (Human), UniProt P08581); experiment: Human Met kinase assay, HTRF KinEase (Example D-2); assay type: biochemical; conditions: read-out: c-Met IC50
Method in brief: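 MET kinase domain (956-1390), 0.1 ng/well, in buffer with 5 mM MgCl2, 1 mM DTT and 1 mM MnCl2, phosphorylated a biotinylated peptide at ATP Km for 40 min at RT; 10 concentrations, 3% DMSO final. EDTA-stopped HTRF read after 60 min; IC50 from a 4-parameter logistic fit.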

[3] = target: Met (phospho-Met, HGF-stimulated PC-3 prostate cancer cells) (Homo sapiens (Human), UniProt P08581); experiment: Met autophosphorylation ELISA in PC-3 cells (Example F); assay type: cell-based; conditions: cellular activity; Met autophosphorylation ELISA in PC-3 cells; read-out: c-Met IC50
Method in brief: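 PC-3 cells, serum-starved 3 h, were treated with compounds (8-point dose curve, 0.3% DMSO final) for 1 h, then stimulated with 100 ng/mL recombinant human HGF for 10 min. Lysate phospho-Met (panTyr) was quantified by sandwich ELISA; IC50 from 4-parameter logistic fit.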

[4] = target: Human KDR (residues 790-1356) (Homo sapiens (Human), UniProt P35968); experiment: Human KDR kinase assay, HTRF KinEase (Example B-2); assay type: biochemical
Method in brief: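 Ten compound concentrations (3% DMSO final) were pre-plated, then KDR (790-1356) with biotinylated peptide in Mg/Mn/DTT buffer was added; ATP at Km (4.0 μM) started a 40 min room-temperature reaction. Detection used Eu-TK antibody and SA-XL665 in EDTA buffer; activity normalized to DMSO and reference inhibitor, IC50 by logistic fit.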

Chain of Mer (phospho-Mer, MERTK-transfected 293A cells) (Q12866 21-999): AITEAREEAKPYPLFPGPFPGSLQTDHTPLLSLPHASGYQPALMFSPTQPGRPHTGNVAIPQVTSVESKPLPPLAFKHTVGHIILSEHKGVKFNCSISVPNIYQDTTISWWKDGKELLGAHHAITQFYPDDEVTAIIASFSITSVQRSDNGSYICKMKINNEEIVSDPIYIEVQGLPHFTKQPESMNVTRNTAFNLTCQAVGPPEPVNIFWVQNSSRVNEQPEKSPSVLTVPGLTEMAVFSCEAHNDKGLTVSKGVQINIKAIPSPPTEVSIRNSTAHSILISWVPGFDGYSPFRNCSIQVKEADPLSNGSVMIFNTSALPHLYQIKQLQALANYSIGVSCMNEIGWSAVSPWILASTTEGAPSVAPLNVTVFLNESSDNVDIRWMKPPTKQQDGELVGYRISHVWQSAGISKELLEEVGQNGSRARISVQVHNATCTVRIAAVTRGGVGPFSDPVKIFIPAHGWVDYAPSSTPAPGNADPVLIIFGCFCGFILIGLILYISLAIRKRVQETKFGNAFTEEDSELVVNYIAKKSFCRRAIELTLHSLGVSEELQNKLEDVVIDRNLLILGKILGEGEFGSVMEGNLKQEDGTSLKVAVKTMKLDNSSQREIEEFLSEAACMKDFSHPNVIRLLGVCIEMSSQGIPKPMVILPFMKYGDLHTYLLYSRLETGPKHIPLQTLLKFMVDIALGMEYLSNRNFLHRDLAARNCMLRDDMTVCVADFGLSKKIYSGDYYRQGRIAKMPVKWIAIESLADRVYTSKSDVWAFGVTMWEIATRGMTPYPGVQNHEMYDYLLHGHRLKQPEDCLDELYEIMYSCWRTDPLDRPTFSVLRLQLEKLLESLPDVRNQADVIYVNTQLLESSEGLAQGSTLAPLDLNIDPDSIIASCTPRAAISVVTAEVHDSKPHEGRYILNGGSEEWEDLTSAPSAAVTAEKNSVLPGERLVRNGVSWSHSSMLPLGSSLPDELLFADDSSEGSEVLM
Chain of Met (phospho-Met, HGF-stimulated PC-3 prostate cancer cells) (P08581 25-1390): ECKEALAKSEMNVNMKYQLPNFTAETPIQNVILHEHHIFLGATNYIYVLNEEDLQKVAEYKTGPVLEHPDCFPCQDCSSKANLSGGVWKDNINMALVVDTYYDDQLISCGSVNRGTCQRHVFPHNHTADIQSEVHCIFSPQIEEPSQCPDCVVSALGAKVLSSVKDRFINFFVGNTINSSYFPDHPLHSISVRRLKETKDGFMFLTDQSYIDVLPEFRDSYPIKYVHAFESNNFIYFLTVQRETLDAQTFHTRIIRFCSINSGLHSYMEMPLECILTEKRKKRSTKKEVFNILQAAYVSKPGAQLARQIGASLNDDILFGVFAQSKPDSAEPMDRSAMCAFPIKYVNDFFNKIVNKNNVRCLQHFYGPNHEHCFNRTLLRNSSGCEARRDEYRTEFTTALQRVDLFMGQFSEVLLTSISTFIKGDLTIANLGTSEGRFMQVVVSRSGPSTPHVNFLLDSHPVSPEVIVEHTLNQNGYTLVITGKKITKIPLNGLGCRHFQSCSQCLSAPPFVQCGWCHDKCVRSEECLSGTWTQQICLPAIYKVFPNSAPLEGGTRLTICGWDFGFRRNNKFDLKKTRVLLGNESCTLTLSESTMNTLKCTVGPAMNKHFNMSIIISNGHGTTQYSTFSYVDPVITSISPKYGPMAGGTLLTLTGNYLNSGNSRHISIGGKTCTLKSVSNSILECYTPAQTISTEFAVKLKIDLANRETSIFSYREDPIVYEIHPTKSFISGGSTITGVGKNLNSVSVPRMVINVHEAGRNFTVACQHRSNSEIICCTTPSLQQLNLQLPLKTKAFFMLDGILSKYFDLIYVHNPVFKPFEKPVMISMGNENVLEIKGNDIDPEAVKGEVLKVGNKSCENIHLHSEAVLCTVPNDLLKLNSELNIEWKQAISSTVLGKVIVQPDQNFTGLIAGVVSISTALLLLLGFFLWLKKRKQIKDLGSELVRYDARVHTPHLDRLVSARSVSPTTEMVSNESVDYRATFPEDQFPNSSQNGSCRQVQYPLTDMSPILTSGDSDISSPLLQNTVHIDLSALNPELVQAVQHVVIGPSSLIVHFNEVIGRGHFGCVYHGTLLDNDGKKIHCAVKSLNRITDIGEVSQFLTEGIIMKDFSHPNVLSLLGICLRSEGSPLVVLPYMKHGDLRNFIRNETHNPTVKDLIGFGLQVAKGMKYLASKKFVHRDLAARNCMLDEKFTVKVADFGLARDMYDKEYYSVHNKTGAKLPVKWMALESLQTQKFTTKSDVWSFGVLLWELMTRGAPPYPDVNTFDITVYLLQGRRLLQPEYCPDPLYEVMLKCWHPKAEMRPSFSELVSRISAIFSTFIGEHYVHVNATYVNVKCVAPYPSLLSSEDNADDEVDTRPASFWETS
Chain of Human MET (residues 956-1390) (P08581 956-1390): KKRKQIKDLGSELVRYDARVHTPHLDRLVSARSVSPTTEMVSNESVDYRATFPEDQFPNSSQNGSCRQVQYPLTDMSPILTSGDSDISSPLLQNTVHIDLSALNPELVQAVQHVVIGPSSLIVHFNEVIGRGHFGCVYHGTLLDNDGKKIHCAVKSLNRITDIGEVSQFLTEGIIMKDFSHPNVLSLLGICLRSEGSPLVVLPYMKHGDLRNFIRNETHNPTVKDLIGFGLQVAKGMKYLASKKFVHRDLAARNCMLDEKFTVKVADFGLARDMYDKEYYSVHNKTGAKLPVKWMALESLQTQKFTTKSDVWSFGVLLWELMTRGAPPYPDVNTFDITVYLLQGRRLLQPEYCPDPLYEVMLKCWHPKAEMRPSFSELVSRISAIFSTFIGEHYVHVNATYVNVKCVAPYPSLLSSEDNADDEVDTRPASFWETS
Chain of Human KDR (residues 790-1356) (P35968 790-1356): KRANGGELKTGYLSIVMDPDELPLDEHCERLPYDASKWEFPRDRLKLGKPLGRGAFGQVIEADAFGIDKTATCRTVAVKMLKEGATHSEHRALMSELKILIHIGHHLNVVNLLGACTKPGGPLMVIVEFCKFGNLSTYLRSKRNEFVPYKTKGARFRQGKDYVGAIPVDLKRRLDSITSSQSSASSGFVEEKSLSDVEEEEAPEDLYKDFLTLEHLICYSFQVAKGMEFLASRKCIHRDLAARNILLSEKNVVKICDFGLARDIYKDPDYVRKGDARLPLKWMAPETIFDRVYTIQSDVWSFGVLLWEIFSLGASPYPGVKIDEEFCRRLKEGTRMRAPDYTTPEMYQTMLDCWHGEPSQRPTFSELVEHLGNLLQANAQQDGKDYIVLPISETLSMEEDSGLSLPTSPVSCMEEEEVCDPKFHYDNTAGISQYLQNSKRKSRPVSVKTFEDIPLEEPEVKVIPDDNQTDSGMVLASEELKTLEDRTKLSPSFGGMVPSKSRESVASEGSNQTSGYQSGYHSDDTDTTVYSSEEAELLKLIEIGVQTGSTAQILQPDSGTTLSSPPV

COc1cc2nccc(Oc3ccc(NC(=O)c4cn(CCO)c(C)c(-c5ccc(F)cc5)c4=O)cc3F)c2nc1OC [Compound 619, N-[4-[(6,7-Dimethoxy-1,5-naphthyridin-4-yl)oxy]-3-fluorophenyl]-5-(4-fluorophenyl)-1-(2-hydroxyethyl)-6-methyl-4-oxopyridine-3-carboxamide]
IC50 [1]: < 100 nM | IC50 ([2]; protocol of Example D-2): < 100 nM | IC50 [3]: < 100 nM | IC50 ([4]; protocol of Example B-2): > 300 nM

Cc1nc(C)c(-c2ccc(F)cc2)c(O)c1C(=O)Nc1ccc(Oc2ccnc3cc(C(C)C)cnc23)cc1 [Compound 598, 5-(4-Fluorophenyl)-4-hydroxy-2,6-dimethyl-N-[4-[(7-propan-2-yl-1,5-naphthyridin-4-yl)oxy]phenyl]pyridine-3-carboxamide]
IC50 [1]: < 100 nM | IC50 ([2]; protocol of Example D-2): < 100 nM | IC50 [3]: < 100 nM | IC50 ([4]; protocol of Example B-2): 100 to 300 nM

COc1cc2nccc(Oc3ccc(NC(=O)c4cn(CCN5CCOCC5)cc(-c5ccc(F)cc5)c4=O)cc3F)c2nc1OC [Compound 157, N-[4-[(6,7-Dimethoxy-1,5-naphthyridin-4-yl)oxy]-3-fluorophenyl]-5-(4-fluorophenyl)-1-(2-morpholin-4-ylethyl)-4-oxopyridine-3-carboxamide]
IC50 [1]: < 100 nM | IC50 ([2]; protocol of Example D-2 (other compounds)): < 100 nM | IC50 [3]: < 100 nM | IC50 ([4]; protocol of Example B-2 (other compounds)): > 300 nM
